For data set [1] the following is noted: buffers for ALP determinations; cited from earlier work.
Data set [2] concerns E. coli. Put plainly: ALP binding to bacteria in presence of carbohydrates, polysaccharides, glycopeptides and lectins (Example 5, Table 3). Conditions: ALP 100 mUnits plus 15 μg of additive. As for the experimental part: (§1) Bacterial cells (1 to 4.5×10^7 cells/mL) were washed twice with water after centrifugation to separate cells into a packed pellet from the supernatant liquid. The washed cells in pellet form were suspended in 20 μl of EPPS buffer (50 mM at pH 8.0) and 30 μL of water. Hemoglobin (20 μg) was added as a blocking additive. Alkaline phosphatase (ALP) (100 mUnits) from bovine intestine and 15 μg of simple carbohydrates or proteoglycan or lectins, were added.
(§2) The mixture of glycated protein and bacterial cells was left at 25° C. for 15 minutes. The mixture was then centrifuged at 30,000 rpm for 30 minutes after which the bacterial cells formed a pellet at the bottom of the tube and were washed with water 4-5 times (50 μL). Centrifugation allows separation of glycoprotein bound to the bacteria cells from unbound glycated protein(s).
(§3) After washing, the bacterial pellets were suspended in 50 μL of sodium tetraborate buffer (25 mM at pH 9.5). A 5 uL aliquot of the suspension was assayed for detection of ALP binding by adding 5 μL of para-nitrophenol phosphate (PNPP, 100 mM), 50 μL sodium borate buffer (25 mM at pH 9.0) and 140 μL of water. […] The color is read at 405 nm using a ELISA plate reader between 15-30 min and the absorbance is directly proportional to the amount of ALP bound to the bacteria cell adhesions for glycated groups.

Data set [3] deals with S. faec. Described as above. To be noted: ALP 100 mUnits plus 15 μg of additive. On the procedure: as §1, §2, §3
Data set [4] concerns bacteria. Put plainly: ALP binding to bacteria in presence of carbohydrates, polysaccharides, glycopeptides and lectins (Example 5). Conditions: 15 μg additive with ALP. On the procedure:
as §1, §2, §3

Data set [5] relates to bacteria. Put plainly: Effect of divalent cations on ALP binding to bacteria (Example 7, Table 5, FIG. 12). As for the experimental part:
(§4) Bacterial cells (1 to 4.5×10^7 cells/mL) were washed twice with water after centrifugation to separate cells into a packed pellet from the supernatant liquid. The washed cells in pellet form were suspended in 20 μL of EPPS buffer (50 mM at pH 8.0) and 30 μL of water. […]
as §2
(§5) After washing, the bacterial pellets were suspended in 50 μL of borate buffer (25 mM at pH 9.0). A 5 μL aliquot of the suspension was assayed for detection of ALP binding by adding 5 μL of para-nitrophenol phosphate (PNPP, 100 mM), 50 μL sodium borate buffer (25 mM at pH 9.0) and 140 μL of water. […] The color was read at 405 nm using an ELISA plate reader between 15-30 min; the absorbance is directly proportional to the amount of ALP bound to the bacteria cell.

The subject of data set [6] is S. faecalis strain. Put plainly: Zinc concentration dependent ALP binding (Example 7, FIG. 11). Conditions: increasing concentration of zinc. On the procedure: Bacterial cells (1 to 4.5×10^7 cells/mL) were washed twice with water after centrifugation to separate cells into a packed pellet from the supernatant liquid. The washed cells in pellet form were suspended in 20 μL of EPPS buffer (50 mM at pH 8.0) and 30 μL of water. Bovine intestinal alkaline phosphatase (ALP) (2 μg or […]) was added and 0.2 mM of several cations.
as §2
After washing, the bacterial pellets were suspended in 50 μL of borate buffer (25 mM at pH 9.0). […] The color was read at 405 nm using an ELISA plate reader between 15-30 min; the absorbance is directly proportional to the amount of ALP bound to the bacteria cell.
Concentration dependent binding study has been performed in the presence of increasing concentration of zinc with S. faecalis strain as shown in FIG. 11. […] The studies have been continued with different strains of bacteria in the presence of 1 mM Zn^2+ and the ALP binding could be monitored even at 10^5 bacteria concentration (FIG. 12).

The subject of data set [7] is bacteria (Sf—Staph. faec.; Ec: E. coli). Put plainly: Effect of various cations on ALP binding to bacteria (Example 8, FIGS. 13-14). Conditions: cations 2 mM, bovine intestinal mucosa ALP, FIG. 13. On the procedure:
as §4
The mixture of glycated protein and bacterial cells was left at 25° C. for 15 minutes. The mixture was then centrifuged at 30,000 rpm for 30 minutes after which the bacterial cells formed a pellet at the bottom of the tube and was washed with water 4-5 times (50 μL). Centrifugation allows separation of glycoprotein bound to the bacteria cells from unbound glycated protein(s).
as §5

The subject of data set [8] is bacteria (both Staph and E. coli). Put plainly: Cation effect on ALP binding, bound ALP assayed in glycine buffer pH 10.0 (Example 9, FIGS. 17-18). To be noted: binding at pH 8.0 in EPPS buffer, assay in glycine buffer pH 10.0, FIGS. 17-18. As for the experimental part:
The binding was conducted at pH 8.0 in EPPS buffer.

The test system of data set [9] is bacteria. Put plainly: Bacteria assay by binding of ALP iso-forms (Example 4, FIG. 10). To be noted: for binding of ALP iso-forms to bacteria: 100 mUnits ALP, hemoglobin blocking. On the procedure: Bacterial cells (1 to 4.5×10^7 cells/mL) were washed twice with water after centrifugation to separate cells into a packed pellet from the supernatant liquid. The washed cells in pellet form were suspended in 20 μL of EPPS buffer (50 mM at pH 8.0) and 30 μL of water. Hemoglobin (20 μg) was added as a blocking additive. Alkaline phosphatase (ALP) (100 mUnits) from intestine, placenta, and bacteria sources were added.
as §2
After washing, the bacterial pellets were suspended in 50 μl of sodium tetraborate buffer (25 mM at pH 9.5). A 5 μL aliquot of the suspension was assayed for detection of ALP binding by adding 5 μL of para-nitrophenol phosphate (PNPP, 100 mM), 50 μL sodium borate buffer (25 mM at pH 9.0) and 140 μL of water. […] The color is read at 405 nm using an ELISA plate reader between 15-30 min and the absorbance is directly proportional to the amount of ALP bound to the bacteria-cell adhesions for glycated groups. The results are illustrated in FIG. 10.

Data set [10] is described as follows: ALP activity of different sources in glycine buffer (Example 9, FIGS. 15-16). To be noted: assayed in glycine buffer. It counts as biochemical.

Consider `CC(N)(CO)CO` [2-amino-2-methyl-1,3-propanediol], for which the pKa in data set [1] was 8.6.

Turning to `CC(C)(N)CO` [2-amino-2-methyl-1-propanol], in data set [1], the pKa is 9.3.

As for `OC[C@H]1O[C@@H](O)[C@H](O)[C@@H](O)[C@@H]1O` [Glucose, β-D-Glucose], the entries for the “absorbance (405 nm) of ALP bound to bacteria” value in data set [2] and in [3] were 1.8 and 2.4, respectively. Also, the “effect on bacteria binding of ALP (in words)” value (shortened to “effect on bacteria binding”) in data set [4] is reported as “did not produce any effect”.

Consider `[Cl-].[Cl-].[Zn+2]` [ZnCl2], for which the “effect of cation on binding of ALP to the bacteria (in words)” value in data set [5] (0.2 mM) is “significantly higher binding of ALP”. Moreover, the “O.D. at 405 nm, With ALP” value in data set [5] (bacteria plus cation (CaCl2 1 mM, MgCl2 1 mM, ZnCl2 0.2 mM) with ALP) is given as 0.53 O.D. The “O.D. at 405 nm, No ALP” value in [5] (bacteria plus cation (CaCl2 1 mM, MgCl2 1 mM, ZnCl2 0.2 mM), no ALP) came to 0.23 O.D. Besides, the “zinc concentration at which optimum binding occurs” value in [6] amounted to 1 mM. In addition, the “effect of various cations on ALP-binding (in words)” value in data set [7] was “stimulate ALP-binding”. In addition, in data set [8], the “cation effectiveness for binding of ALP to the bacteria” value is given as “best metal”.

Turning to `CCC1(CC)C(=O)NC(=O)NC1=O` [barbital], in data set [1], the pKa is recorded as 7.44.

`OCCNCCO` [diethanolamine]: the pKa in [1] is recorded as 8.7.

As for Lipopolysaccharide, the “absorbance (405 nm) of ALP bound to bacteria” value is 1.8 in data set [2] and 2.0 in data set [3]. The “effect on bacteria binding” value in data set [4] was “without any effect”.

As to Lipoteichoic acid, the “absorbance (405 nm) of ALP bound to bacteria” value in data set [2] and in data set [3] was 0.2 throughout. In data set [4], the “effect on bacteria binding” value is given as “strongly inhibits”.

Consider “bacterial ALP: Alkaline phosphatase from bacteria sources; lacks glycophospholipid”, for which the “binding of ALP iso-forms to bacteria” value in data set [9] is “binds bacteria”.

B1: placenta ALP: Alkaline phosphatase from placenta (protein, UniProt P05187 23-506, looked up)
Alkaline phosphatase, …: IIPVEEENPDFWNREAAEALGAAKKLQPAQTAAKNLIIFLGDGMGVSTVTAARILKGQKKDKLGPEIPLAMDRFPYVALSKTYNVDKHVPDSGATATAYLCGVKGNFQTIGLSAAARFNQCNTTRGNEVISVMNRAKKAGKSVGVVTTTRVQHASPAGTYAHTVNRNWYSDADVPASARQEGCQDIATQLISNMDIDVILGGGRKYMFRMGTPDPEYPDDYSQGGTRLDGKNLVQEWLAKRQGARYVWNRTELMQASLDPSVTHLMGLFEPGDMKYEIHRDSTLDPSLMEMTEAALRLLSRNPRGFFLFVEGGRIDHGHHESRAYRALTETIMFDDAIERAGQLTSEEDTLSLVTADHSHVFSFGGYPLRGSSIFGLAPGKARDRKAYTVLLYGNGPGYVLKDGARPDVTESESGSPEYRQQSAVPLDEETHAGEDVAVFARGPQAHLVHGVQEQTFIAHVMAFAACLEPYTACDLAPPAGTTD
As for B1, the “binding of ALP iso-forms to bacteria” value in [9] is listed as “lowest binding to bacteria”. Moreover, the “enzyme activity of ALP iso-forms” value in [9] (PNPP) is “lowest enzyme activity”. Further, in data set [10], the “ALP activity compared with other sources” value is recorded as “comparable to ALP from other sources”.

The values above are taken from patent publication US20060141546A1, “Bacterial test method by glycated label binding” (priority 2002, published 2006).
